Data: the supplement of paper PMC10307832

Experiments:
Assay in all cases: relative viability (nuclei count vs DMSO), 5 days (fraction); higher = more cells survive
ALW-II-49-7 + Decitabine = compound: Cc1ccc(C(=O)Nc2cccc(C(F)(F)F)c2)cc1Nc1cncc(C(N)=O)c1 [ALW-II-49-7] + Nc1ncn([C@H]2C[C@H](O)[C@@H](CO)O2)c(=O)n1 [Decitabine] (partner 2 µM)
Method in brief: (§1)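 Lung cancer cell lines were pin-tool dosed in 1536-well plates on the day after seeding, with either a lone drug or a fixed anchor-drug dose plus five library-drug doses (not always all listed) in √10 steps. Nuclei were counted on 4× images after 5 days. Relative viability is the ratio of treated-well to vehicle-well nuclei counts, with each value a median of duplicate plates.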

Dasatinib + Bortezomib = compound: Cc1nc(Nc2ncc(C(=O)Nc3c(C)cccc3Cl)s2)cc(N2CCN(CCO)CC2)n1 [Dasatinib] + CC(C)C[C@H](NC(=O)[C@H](Cc1ccccc1)NC(=O)c1cnccn1)B(O)O [Bortezomib] (partner 0.002 µM)
Method in brief: as §1

Dasatinib + Navitoclax = compound: Cc1nc(Nc2ncc(C(=O)Nc3c(C)cccc3Cl)s2)cc(N2CCN(CCO)CC2)n1 [Dasatinib] + CC1(C)CCC(c2ccc(Cl)cc2)=C(CN2CCN(c3ccc(C(=O)NS(=O)(=O)c4ccc(N[C@H](CCN5CCOCC5)CSc5ccccc5)c(S(=O)(=O)C(F)(F)F)c4)cc3)CC2)C1 [Navitoclax] (partner 0.5 µM)
Method in brief: as §1

Dasatinib + Decitabine = compound: Cc1nc(Nc2ncc(C(=O)Nc3c(C)cccc3Cl)s2)cc(N2CCN(CCO)CC2)n1 [Dasatinib] + Nc1ncn([C@H]2C[C@H](O)[C@@H](CO)O2)c(=O)n1 [Decitabine] (partner 2 µM)
Method in brief: as §1

UMC-11
relative viability (ALW-II-49-7 + Decitabine; first compound 0.08 µM): 0.642 | relative viability (ALW-II-49-7 + Decitabine; first compound 0.253 µM): 0.663 | relative viability (ALW-II-49-7 + Decitabine; first compound 0.8 µM): 0.58 | relative viability (ALW-II-49-7 + Decitabine; first compound 2.53 µM): 0.419 | relative viability (ALW-II-49-7 + Decitabine; first compound 8 µM): 0.552 | relative viability (Dasatinib + Bortezomib; first compound 0.005 µM): 0.668 | relative viability (Dasatinib + Bortezomib; first compound 0.01581 µM): 0.688 | relative viability (Dasatinib + Bortezomib; first compound 0.05 µM): 0.806 | relative viability (Dasatinib + Bortezomib; first compound 0.1581 µM): 0.313 | relative viability (Dasatinib + Bortezomib; first compound 0.5 µM): 0.291 | relative viability (Dasatinib + Navitoclax; first compound 0.005 µM): 0.308 | relative viability (Dasatinib + Navitoclax; first compound 0.01581 µM): 0.247 | relative viability (Dasatinib + Navitoclax; first compound 0.05 µM): 0.275 | relative viability (Dasatinib + Navitoclax; first compound 0.1581 µM): 0.246 | relative viability (Dasatinib + Navitoclax; first compound 0.5 µM): 0.241 | relative viability (Dasatinib + Decitabine; first compound 0.005 µM): 0.58 | relative viability (Dasatinib + Decitabine; first compound 0.01581 µM): 0.595 | relative viability (Dasatinib + Decitabine; first compound 0.05 µM): 0.532 | relative viability (Dasatinib + Decitabine; first compound 0.1581 µM): 0.292 | relative viability (Dasatinib + Decitabine; first compound 0.5 µM): 0.246
